Reference: patent US20240415819A1, “MACROCYCLIC COMPOUNDS AS PROTEASOME SUBUNIT BETA TYPE-5 INHIBITORS” (Lead Discovery Center GmbH, priority 2021, published 2024)

Tests used:
[1] = biological target: T1, β5 subunit of the human immunoproteasome (IPS) (Homo sapiens, UniProt P28062); test: β5 inhibition assay, human immunoproteasome (Suc-LLVY-AMC); assay type: biochemical; settings: IC50 class, Suc-LLVY-AMC substrate
T1 construct: purchased Boston Biochem E-370
Procedure, shortened: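 β5 activity is read as liberated AMC fluorescence (355/460 nm) after 4 h dark reaction at RT with 22.6 μM Suc-LLVY-AMC, stopped by 1 μM bortezomib. Beforehand, 1 nM human IPS and compound sat 10 min at RT in HEPES pH 7.5 buffer containing NaCl, 0.02% SDS and DTT.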

hPMBC = test: Chymotrypsin-like ProteasomeGlo assay in hPBMC; assay type: cell-based; settings: Homo sapiens; read-out: Pglo hPBMC
Text: Chymotrypsin-like ProteasomeGlo assay in the B-cells isolated from PBMC's following compound addition (IC50). • 1. PBMC's will be isolated from human blood followed by B-cell isolation from the PBMC's using the Miltenyi Isolation Kit. • 2. This experiment will use the Chymotrypsin-like ProteasomeGlo read-out to generate IC50's following compound treatment. • 3. Dilute all compounds 1:100 for the assay. • 4. […] Repeat the DMSO transfer with lane 12. • 5. Lane 12 should not be seeded with any cells. Only medium! • 6. For all steps, make sure the samples and reagents remain cool! • 7. While dealing with the buffy coats, be careful to not let any exposed skin to be in direct contact with the blood.
For the initial steps and to make processing the buffy coats easier, separately process the buffy coats. • a. Cut the tube attached to the buffy coats carefully using a clean, sterile and fresh scalpel. • b. Transfer the blood into 2 individual 50 ml falcons. • c. Add an equal volume of DPBS to the blood in the falcons. • d. Add ˜20 ml of lymphocyte separating medium to two 50 ml falcons. • e. Carefully pour 15-20 ml of the blood+DPBS mix from step c. onto the lymphocyte separating medium from step d. • f. Centrifuge the falcons with the lymphocyte separating medium+blood mix at 800×g for 15 minutes using a swing-out rotor. • g. Following centrifugation, carefully remove the falcons from the centrifuge. • h. The following layers will be observed: • i. Aspirate the plasma layer off carefully without disturbing the different layers. • j. Remove the cell pellet using a pipette into two fresh 50 ml falcons. • k. Fill the falcons with the cells up to 50 ml with DPBS. • l. Centrifuge the falcons at 250×g for 10 minutes using a swing-out rotor (Brake-off). • m. Aspirate the complete DPBS off the cells without disturbing the cell pellet at the bottom of the falcon. • n. Re-suspend the cell pellet in 10 ml of 1×RBC lysis buffer. • o. Incubate the falcons at room temperature in the dark for 10 minutes. • p. After RBC lysis, centrifuge the tubes at 250×g for 10 minutes using a swing-out rotor (brake-off). • (*Note: If the cell pellet is still red or light red, repeat steps n. to p.!) • q. Re-suspend the cell pellet in DPBS up to 50 ml in the falcon. • r. Centrifuge the falcons at 250×g for 10 minutes using a swing-out rotor (Brake-off). • s. Aspirate the DPBS off the cells without disturbing the cell pellet at the bottom of the falcon. • t. Repeat the wash step as described in steps q. to s. 2× times more (total number of washes is 3×). • u. Aspirate the DPBS completely off the cell pellet after the last wash without disturbing the cell pellet. • v. Re-suspend the cell pellet in 20 ml of PBMC cell medium. • w.
• a. Remove the plates with cells from the incubator. • b. Take all the plates including the compound plate, intermediate plate and Staurosporine plate to the ECHO. • c. Click on “Open” in the ECHO software and select the protocol “QLI5_25ul_30 uM-Grenier”. • d. Follow the on-screen prompts and instructions once you click “Start” to insert the compound plate, intermediate plate and destination plates. • e. Change the final number of destination plates on the program. • f. Follow the on-screen prompts and instructions once you click “Start” to load the Staurosporine and destination plates. • g. Once all the compounds, DMSO and Staurosporine have been transferred, place the destination plates in a wet tissue box. • h. Place the destination plates back into the incubator and incubate at 37° C., 5% CO2 for 105 minutes. • i. Re-seal all the compound+Stauro diamond and intermediate plates and store in the dark. Chymotrypsin like ProteasomeGlo Assay • 1. Thaw the components of the ProteasomeGlo assay at room temperature including the ProteasomeGlo Buffer, the lyophilized Luciferin Detection Reagent and the Suc-LLVY-Glo Substrate. • 2. […]

| Compound | IC50 [1] [nM] | IC50 (hPMBC) [nM] |
| --- | --- | --- |
| Cc1ccc2cc1CNC(=O)[C@H](CCc1ccccc1)NC(=O)[C@@H](NC(=O)OCc1ccccc1)CC(=O)N1CC(CCO2)CC2CCCCC21 (stereo partly drawn) [Compound 314, benzyl ((9S,12S)-5^4-methyl-8,11,14-trioxo-9-phenethyl-11,12,13,14,14a,15,16,17,18,18a-decahydro-4-oxa-7,10-diaza-1(3,1)-quinolina-5(1,3)-benzenacyclotetradecaphane-12-yl)carbamate] | < 100 | < 100 |
| Cc1ccc2cc1CNC(=O)[C@H](CCc1ccccc1)NC(=O)[C@@H](NC(=O)OCc1ccccc1)CC(=O)N1CC(C)CC(CCO2)C1 (stereo partly drawn) [Compound 337, benzyl ((9S,12S)-1^5,5^4-dimethyl-8,11,14-trioxo-9-phenethyl-4-oxa-7,10-diaza-1(3,1)-piperidina-5(1,3)-benzenacyclotetradecaphane-12-yl)carbamate] | < 100 | < 100 |
| Cc1ccc2cc1CNC(=O)[C@H](CCc1ccccc1)NC(=O)[C@@H](NC(=O)OCc1ccccc1)CCCC(=O)NCCCCO2 [Compound 322, benzyl ((12S,15S)-1^4-methyl-8,13, 16-trioxo-15-phenethyl-2-oxa-7,14,17-triaza-1(1,3)-benzenacyclooctadecaphane-12-yl)carbamate] | < 100 | 500 to 1000 |
| Cc1ccc2cc1CNC(=O)C(CCc1cnc3nccnc3c1)NC(=O)[C@@H](NC(=O)OCc1ccccc1)CC(=O)N1CCCC(CCO2)C1 (stereo partly drawn) [Compound 505, benzyl ((12S)-5^4-methyl-8,11,14-trioxo-9-(2-(pyrido[2,3-b]pyrazin-7-yl)ethyl)-4-oxa-7,10-diaza-1(3,1)-piperidina-5(1,3)-benzenacyclotetradecaphane-12-yl)carbamate] | < 100 | 100 to 500 |
| Cc1cc2cc(c1C)CNC(=O)C(c1cnn(C)c1)NC(=O)CCC(=O)N1CCCC(CCO2)C1 (stereo not shown) [Compound 355, 5^4,5^5-dimethyl-9-(1-methyl-1H-pyrazol-4-yl)-4-oxa-7,10-diaza-1(3,1)-piperidina-5(1,3)-benzenacyclotetradecaphane-8,11,14-trione] | < 100 | < 100 |
| CC(=O)N[C@H]1CCC(=O)N2CC3CC(Oc4ccc(C)c(c4)CNC(=O)[C@H](CCc4ccccc4)NC1=O)C3C2 (stereo partly shown) [Compound 299, N-(3^4-methyl-6,9,13-trioxo-7-phenethyl-2-oxa-13,5,8-triaza-1(6,3)-bicyclo[3.2.0]heptana-3(1,3)-benzenacyclotridecaphane-10-yl)acetamide] | 500 to 1000 | 1000 to 5000 |
| Cc1ccc2cc1CNC(=O)[C@H](CCc1ccccc1)NC(=O)[C@@H](NC(=O)OCc1ccccc1)CC(=O)N1CCCC3(CC(C3)O2)C1 [Compound 300] | < 100 | 500 to 1000 |
| Cc1ccc2cc1CNC(=O)C(CCc1cnccn1)NC(=O)[C@@H](NC(=O)Cc1ccc(N)cc1F)CC(=O)N1CCCC(CCO2)C1 (stereo partly drawn) [Compound 372, 2-(4-amino-2-fluorophenyl)-N-((9S,12S)-5^4-methyl-8,11,14-trioxo-9-(2-(pyrazin-2-yl)ethyl)-4-oxa-7,10-diaza-1(3,1)-piperidina-5(1,3)-benzenacyclotetradecaphane-12-yl) acetamide] | < 100 | < 100 |
| Cc1ccc2cc1CNC(=O)[C@H](CCc1ccccc1)NC(=O)[C@@H](NC(=O)C(C)(C)C)CC(=O)N1CCCC(CCO2)C1 (stereo partly drawn) [Compound 27, N-((9S,12S)-5^4-methyl-8,11,14-trioxo-9-phenethyl-4-oxa-7,10-diaza-1(3,1)-piperidina-5(1,3)-benzenacyclotetradecaphane-12-yl)pivalamide] | < 100 |  |
| CC(=O)N[C@H]1CC(=O)N2CCCC(CCOc3ccc(C)c(c3)CNC(=O)C(CCc3ccncc3)NC1=O)C2 (stereo partly drawn) [Compound 551, N-((12S)-5^4-methyl-8,11,14-trioxo-9-(2-(pyridin-4-yl)ethyl)-4-oxa-7,10-diaza-1(3,1)-piperidina-5(1,3)-benzenacyclotetradecaphane-12-yl)acetamide] | < 100 | < 100 |
| Cc1ccc2cc1CNC(=O)[C@H](CCc1ccccc1)NC(=O)[C@@H](NC(=O)OCc1ccccc1)CCCC(=O)N1CCCC3(CC(C3)O2)C1 [Compound 283, benzyl ((7S,10S)-34-methyl-6,9,14-trioxo-7-phenethyl-2-oxa-5,8-diaza-15(3,1)-piperidina-3(1,3)-benzena-1(1,3)-cyclobutanapentadecaphane-10-yl)carbamate] | < 100 | 500 to 1000 |
| Cc1ccc2cc1CNC(=O)[C@H](CCc1ccccc1)NC(=O)[C@@H](NC(=O)c1nc3ccccc3[nH]1)CC(=O)N1CCCC(CCO2)C1 (stereo partly drawn) [Compound 31, N-((9S,12S)-5^4-methyl-8,11,14-trioxo-9-phenethyl-4-oxa-7,10-diaza-1(3,1)-piperidina-5(1,3)-benzenacyclotetradecaphane-12-yl)-1H-benzo[d] imidazole-2-carboxamide] | < 100 |  |
| Cc1ccc2cc1CNC(=O)[C@H](CCc1ccccc1)NC(=O)[C@@H](NC(=O)c1ncccn1)CC(=O)N1CCCC(CCO2)C1 (stereo partly drawn) [Compound 32, N-((9S,12S)-5^4-methyl-8,11,14-trioxo-9-phenethyl-4-oxa-7,10-diaza-1(3,1)-piperidina-5(1,3)-benzenacyclotetradecaphane-12-yl)pyrimidine-2-carboxamide] | < 100 |  |
| CC(=O)N[C@H]1CC(=O)N2CCCC(CCOc3ccc(C)c(c3)CNC(=O)[C@H](CCc3ccccc3)NC1=O)C2 (stereo partly drawn) [Compound 33, N-((9S,12S)-5^4-methyl-8,11,14-trioxo-9-phenethyl-4-oxa-7,10-diaza-1(3,1)-piperidina-5(1,3)-benzenacyclotetradecaphane-12-yl)acetamide] | < 100 |  |
| Cc1ccc2cc1CNC(=O)[C@H](CCc1ccccc1)NC(=O)[C@@H](Nc1ncccn1)CC(=O)N1CCCC(CCO2)C1 (stereo partly drawn) [Compound 34, (9S,12S)-5^4-methyl-9-phenethyl-12-(pyrimidin-2-ylamino)-4-oxa-7,10-diaza-1(3,1)] | < 100 |  |
| Cc1ccc2cc1CNC(=O)[C@H](CCc1ccccc1)NC(=O)[C@@H](NC(=O)Cc1ccccc1)CC(=O)N1CCCC(CCO2)C1 (stereo partly drawn) [Compound 29, N-((9S,12S)-5^4-methyl-8,11,14-trioxo-9-phenethyl-4-oxa-7,10-diaza-1(3,1)-piperidina-5(1,3)-benzenacyclotetradecaphane-12-yl)-2-phenylacetamide] | < 100 |  |
| Cc1ccc2cc1CNC(=O)[C@H](CCc1ccccc1)NC(=O)[C@@H](NC1COC1)CC(=O)N1CCCC(CCO2)C1 (stereo partly drawn) [Compound 35, (9S,12S)-5^4-methyl-12-(oxetan-3-ylamino)-9-phenethyl-4-oxa-7,10-diaza-1(3,1)-piperidina-5(1,3)-benzenacyclotetradecaphane-8,11,14-trione] | < 100 |  |
| Cc1ccc2cc1CNC(=O)C(CCc1ccccc1)NC(=O)C(NC(=O)CCc1ccccc1)CC(=O)N1CCCC(CCO2)C1 [Compound 30, N-((9S,12S)-5^4-methyl-8,11,14-trioxo-9-phenethyl-4-oxa-7,10-diaza-1(3,1)-piperidina-5(1,3)-benzenacyclotetradecaphane-12-yl)-3-phenylpropanamide] | < 100 |  |
